Laboratory results published in paper PMC6277375, “Pharmacological profile of the neuropeptide S receptor: Dynamic mass redistribution studies” (Pharmacology Research & Perspectives, 2018).
Several values for one entry are separate records, joined by “and”; a condition that tells them apart may be missing. Equal entries are not always repeated. Marks after values point to notes of the source that are not given here. Values belong to the compound of their own block, whether it stands above or below them. Numbered stars: 1 amine (or outer) side, 2 acyl side, 3 side chain; on linkers, the order of the positions; unused ones are H or OH. Bridge positions count the residues as written; N and C are the ends. Square brackets hold non-standard residues; d marks the D form. Peptide text beside a SMILES is read from it. * marks the point of attachment. Leu(3R-OH,Nα-propionyl) = CCC(=O)N[C@H](C(=O)*)[C@H](O)C(C)C; X1 = CC(C)[C@@H](O[*:3])[C@H](N[*:1])C(=O)[*:2]; NMeT = CN[C@H](C(=O)O)[C@@H](C)O; dPhLac = O=C(O)[C@H](O)Cc1ccccc1; NMeA = CN[C@@H](C)C(=O)O; NMeDha = C=C(NC)C(=O)O

What was measured:
[1] = tested on: NPSR; conditions: cited from earlier work
Source text: The pharmacological profile of NPSR in the DMR assay has been investigated using several NPSR ligands acting as full and partial agonists and pure antagonists in the calcium mobilization assay. The DMR effects of these compounds solely derive from their capability to activate NPSR since we selected their concentration range based on lack of DMR signal in wild‐type cells. Overall, the DMR pharmacological profile of NPSR looks similar but not identical to that reported in literature using the calcium mobilization assay. The first aspect that deserves attention is related to the efficacy of NPSR ... || Regarding NPSR agonists, another point that must be addressed is the pharmacological behavior of PWT1‐NPS. […] The high in vitro potency of PWT1‐NPS was associated with a high in vivo potency and long‐lasting duration of action.31 These features seem to be common to PWT derivatives of other neuropeptides including nociceptin/orphanin FQ, opioids and tachykinins (reviewed in 40). In DMR experiments, we were not able to fully investigate the pharmacologic ...

[2] = target: T1, murine NPSR (Mus musculus, UniProt Q8BZP8); assay: Dynamic mass redistribution (DMR) assay in HEK293mNPSR cells; assay type: cell-based; conditions: for DMR response, HEK293mNPSR pm ± SEM: peak at 60 minute, mean ± SEM, duplicate
T1 construct: expressed in transfected cells
T1 sequence (Q8BZP8 1-371): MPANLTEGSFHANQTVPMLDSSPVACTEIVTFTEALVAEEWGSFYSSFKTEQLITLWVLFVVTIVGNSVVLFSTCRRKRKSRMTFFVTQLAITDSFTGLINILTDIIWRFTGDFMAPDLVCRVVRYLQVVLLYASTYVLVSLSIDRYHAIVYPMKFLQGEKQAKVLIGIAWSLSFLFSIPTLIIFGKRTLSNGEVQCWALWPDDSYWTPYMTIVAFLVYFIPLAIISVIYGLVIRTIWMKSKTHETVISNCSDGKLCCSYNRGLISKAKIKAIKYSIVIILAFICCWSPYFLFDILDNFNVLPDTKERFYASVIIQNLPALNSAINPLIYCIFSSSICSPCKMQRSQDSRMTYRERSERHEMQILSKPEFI
Description: (§1) HEK293 cells stably expressing the murine NPSR receptor (HEK293mNPSR) were described previously.3 Wild‐type HEK293 cells were used as a control. Cells were maintained in Dulbecco's Medium (DMEM) supplemented with 10% fetal bovine serum, 100 U/mL penicillin, 100 μg/mL streptomycin and, 2 mmol L^−1 L‐glutamine. The medium was complemented with 100 mg/L hygromycin for HEK293mNPSR. Cells were cultured at 37°C in 5% CO2 humidified air.
Confluent cells were subcultured using trypsin/EDTA and used for experiments. […] On the day of the experiment, cells were manually washed twice and maintained with assay buffer for 90 minutes before DMR experiments. DMR was monitored in real time with a temporal resolution of 22 seconds throughout the assay. Experiments were performed at 37°C, using an EnSight Multimode Plate Reader (PerkinElmer), that uses the Corning® Epic® Technology to measure the DMR signal. Agonism protocol: a 5‐minute baseline was first established, followed by adding compounds manually in a volume of 10 μL and recording compounds‐triggered DMR signal for 60 minute. Antagonism protocol: antagonists were added manually 25 minute before reading the 5‐minute baseline. After baseline establishment, NPS was injected and DMR signal was recorded for 60 minute. Antagonist properties of ligands were measured by assessing the concentration‐response curve to NPS in the absence and in presence of a fixed concentration of compound. FR900359 was added 60 minute before NPS, rolipram was incubated for 90 minute before NPS, while PTX was added 24 hours before NPS. Maximum picometer (pm) modifications (peak measured at 60 minute time point) were used to determine agonist response after baseline normalization.
All data were analyzed using Graph Pad Prism 6.0 (La Jolla, CA, USA). Concentration‐response curves were fitted using the four parameters log logistic equation. Data are expressed as mean ± SEM of n experiments performed in duplicate and were analyzed using one‐ or two‐way analysis of variance (ANOVA) followed by Dunnett's or Tukey's test for multiple comparisons wherever appropriate. […] Antagonists potencies were assayed at single concentrations against the concentration‐response curve to NPS and their pA2 was derived using the following equation: pA2 = log(CR − 1) − log[A], where CR is the ratio between agonist potency (EC50) in the presence and in absence of antagonist and [A] is the molar concentration of antagonist.

[3] = target: T1, murine NPSR; assay: Calcium mobilization assay in HEK293mNPSR cells; assay type: cell-based; conditions: FR900359 injected 24 minute before NPS, Fluo-4 AM, FlexStation II, 37°C
Description: Cells were seeded at a density of 50 000 cells/well in 100 μL into poly‐D‐lysine coated 96‐well black, clear‐bottom plates. The following day, cells were incubated with medium supplemented with 2.5 mmol L^−1 probenecid, 3 μmol L^−1 of the calcium sensitive fluorescent dye Fluo‐4 AM and 0.01% pluronic acid, for 30 minute at 37°C. Following this, the loading solution was aspirated and 100 μL of HBSS supplemented with 20 mmol L^−1 HEPES, 2.5 mmol L^−1 probenecid and 500 μmol L^−1 Brilliant Black were added. Cell culture and drug plates were placed into a fluorimetric imaging plate reader (FlexStation II, Molecular Devices, Sunnyvale, CA) and fluorescent changes were measured. On‐line additions were carried out in a volume of 50 μL/well. To facilitate drug diffusion into the wells, the present studies were performed at 37°C and three cycles of mixing (25 μL from each well moved up and down three times) were performed immediately after FR900359 injection to the wells. FR900359 was injected into the wells 24 minute before adding NPS.
All data were analyzed using Graph Pad Prism 6.0 (La Jolla, CA, USA). […] Data are expressed as mean ± SEM of n experiments performed in duplicate and were analyzed using one‐ or two‐way analysis of variance (ANOVA) followed by Dunnett's or Tukey's test for multiple comparisons wherever appropriate. […]

[4] = tested on: wild-type HEK293 cells; assay: DMR assay in wild-type HEK293 cells (control); assay type: cell-based, Human; conditions: ligand 10 μmol L^−1, 37°C, peak at 60 minute after baseline normalization, mean ± SEM, duplicate
Description: as §1
(§2) Confluent cells were subcultured using trypsin/EDTA and used for experiments. Cells were seeded at a density of 20 000 cells/well in 30 μL into fibronectin‐coated Enspire™‐LC 384‐wells plates and cultured for 20 hours to form a confluent monolayer. On the day of the experiment, cells were manually washed twice and maintained with assay buffer for 90 minutes before DMR experiments. DMR was monitored in real time with a temporal resolution of 22 seconds throughout the assay. Experiments were performed at 37°C, using an EnSight Multimode Plate Reader (PerkinElmer), that uses the Corning® Epic® Technology to measure the DMR signal. Agonism protocol: a 5‐minute baseline was first established, followed by adding compounds manually in a volume of 10 μL and recording compounds‐triggered DMR signal for 60 minute. Antagonism protocol: antagonists were added manually 25 minute before reading the 5‐minute baseline. After baseline establishment, NPS was injected and DMR signal was recorded for 60 minute. Antagonist properties of ligands were measured by assessing the concentration‐response curve to NPS in the absence and in presence of a fixed concentration of compound. FR900359 was added 60 minute before NPS, rolipram was incubated for 90 minute before NPS, while PTX was added 24 hours before NPS. Maximum picometer (pm) modifications (peak measured at 60 minute time point) were used to determine agonist response after baseline normalization.
All data were analyzed using Graph Pad Prism 6.0 (La Jolla, CA, USA). Concentration‐response curves were fitted using the four parameters log logistic equation. Data are expressed as mean ± SEM of n experiments performed in duplicate and were analyzed using one‐ or two‐way analysis of variance (ANOVA) followed by Dunnett's or Tukey's test for multiple comparisons wherever appropriate. Agonist potency was expressed as pEC50, which is the negative logarithm to base 10 of the agonist molar concentration that produces 50% of the maximal possible effect of that agonist. Antagonists potencies were assayed at single concentrations against the concentration‐response curve to NPS and their pA2 was derived using the following equation: pA2 = log(CR − 1) − log[A], where CR is the ratio between agonist potency (EC50) in the presence and in absence of antagonist and [A] is the molar concentration of antagonist.

[5] = tested on: HEK293mNPSR cells; assay: DMR response to NECA with and without rolipram in HEK293mNPSR cells; assay type: cell-based; conditions: NECA 10 μmol L^−1 + rolipram 10 μmol L^−1 (90 minute before), P < 0.05 vs NECA alone
Description: as §2, with “FR900359 was added 60 minute before NPS, rolipram was incubated for 90 minute before NPS, while PTX was added 24 hours before NPS.” left out, “normalization. […]” for “normalization.”

DMR response, HEK293mNPSR pm ± SEM ([2]; ligand 1 μmol L^−1, 37°C): 387 ± 43 pm and 387 ± 43 ^a pm
DMR response as % of NPS maximal effect ([2]; ligand 1 μmol L^−1 alone): 58%
Compound: [D‐Cys(^tBu)^5]NPS
behaviour in the calcium mobilization assay [1]: pure NPSR antagonist

Compound: C=C1C(=O)N[C@@H](C)C(=O)N(C)[C@@H](C)C(=O)N[C@@H]([C@H](OC(=O)[C@@H](NC(=O)CC)[C@H](O)C(C)C)C(C)C)C(=O)N(C)[C@@H]([C@@H](C)OC)C(=O)O[C@H](C(C)C)[C@H](NC(C)=O)C(=O)O[C@H](Cc2ccccc2)C(=O)N1C [FR900359, [(1R)‐1‐[(3S,6S,9S,12S,18R,21S,22R)‐21‐acetamido‐18‐benzyl‐3‐[(1R)‐1‐methoxyethyl]‐4,9,10,12,16‐pentamethyl‐15‐methylidene‐2,5,8,11,14,17,20‐heptaoxo‐22‐propan‐2‐yl‐1,19‐dioxa‐4,7,10,13,16‐pentazacyclodocos‐6‐yl]‐2‐methylpropyl] (2S,3R)‐3‐hydroxy‐4‐methyl‐2‐(propanoylamino)pentanoate, reference compound] (Ac-[X1][dPhLac][NMeDha]A[NMeA][X1](Leu(3R-OH,Nα-propionyl))[NMeT](Me); ester 1-C)
Effect of inhibitor on NPS stimulated calcium mobilization [3]: completely abolished
Effect of inhibitor on NPS-evoked DMR response ([2]; FR900359 1 μmol L^−1 (60 minute before NPS), PTX 100 ng mL^−1 (24 hours before), rolipram 10 μmol L^−1 (90 minute before)): strongly, but not completely, reduced NPS effects

Compound: CCNC(=O)[C@H]1O[C@@H](n2cnc3c(N)ncnc32)[C@H](O)[C@@H]1O [NECA, (2S,3S,4R,5R)‐5‐(6‐aminopurin‐9‐yl)‐N‐ethyl‐3,4‐dihydroxyoxolane‐2‐carboxamide, reference compound]
DMR response, HEK293 pm ± SEM [4]: 312 ± 28 ^a pm
DMR response, HEK293mNPSR pm ± SEM ([2]; ligand 10 μmol L^−1, 37°C): 229 ± 18 pm and 229 ± 18 ^a pm
DMR response of NECA in presence of rolipram [5]: 464 ± 58 pm
